The text below walks through data of patent US9840501B2, “Morpholin-pyridine derivatives” (Hoffmann-La Roche Inc., priority 2014, dated 2017).

Assay [1] has as its target mouse TAAR1 (Mus musculus (Mouse), UniProt Q923Y8). Kind of assay: Radioligand binding assay on mouse TAAR1. Particulars: mouse TAAR1, membranes of stably transfected HEK-293 cells; first value of the pair; read-out: Ki (μM) mouse/rat: mouse. As for the experimental part:
(§1) For the construction of expression plasmids the coding sequences of human, rat and mouse TAAR 1 were amplified from genomic DNA essentially as described by Lindemann et al.. The Expand High Fidelity PCR System (Roche Diagnostics) was used with 1.5 mM Mg^2+ and purified PCR products were cloned into pCR2.1-TOPO cloning vector (Invitrogen) following the instructions of the manufacturer. PCR products were subcloned into the pIRESneo2 vector (BD Clontech, Palo Alto, Calif.), and expression vectors were sequence verified before introduction in cell lines.
(§2) For the generation of stably transfected cell lines HEK293 cells were transfected with the pIRESneo2 expression plasmids containing the TAAR coding sequences (described above) with Lipofectamine 2000 (Invitrogen) according to the instructions of the manufacturer, and 24 hrs post transfection the culture medium was supplemented with 1 mg/ml G418 (Sigma, Buchs, Switzerland). After a culture period of about 10 d clones were isolated, expanded and tested for responsiveness to trace amines (all compounds purchased from Sigma) with the cAMP Biotrak Enzyme immunoassay (EIA) System (Amersham) following the non-acetylation EIA procedure provided by the manufacturer.
Radioligand Binding Assay on Mouse TAAR1
(§3) Membrane Preparation and Radioligand Binding.
(§4) Cells were released from culture flasks using trypsin/EDTA, harvested, washed twice with ice-cold PBS (without Ca^2+ and Mg^2+), pelleted at 1,000 rpm for 5 min at 4° C., frozen and stored at −80° C. Frozen pellets were suspended in 20 ml HEPES-NaOH (20 mM, pH 7.4) containing 10 mM EDTA and homogenized with a Polytron (PT 6000, Kinematica) at 14′000 rpm for 20 s. The homogenate was centrifuged at 48,000×g for 30 min at 4° C. Subsequently, the supernatant was removed and discarded, and the pellet resuspended in 20 ml HEPES-NaOH (20 mM, pH 7.4) containing 0.1 mM EDTA using the Polytron (20 s at 14′000 rpm). This procedure was repeated and the final pellet resuspended in HEPES-NaOH containing 0.1 mM EDTA and homogenized using the Polytron. Typically, aliquots of 2 ml membrane portions were stored at −80° C. With each new membrane batch the dissociation constant (Kd) was determined via a saturation curve. […] Nonspecific binding was defined as the amount of ^3[H]—(S)-4-[(ethyl-phenyl-amino)-methyl]-4,5-dihydro-oxazol-2-ylamine bound in the presence of 10 μM unlabeled ligand. All compounds were tested at a broad range of concentrations (10 pM to 10 μM) in duplicates. […] The 96 deep well plates were incubated for 1 hr at 4° C. Incubations were terminated by rapid filtration through Unifilter-96 plates (Packard Instrument Company) and glass filters GF/C (Perkin Elmer) presoaked for 1 hr in polyethylenimine (0.3%) and washed 3 times with 1 ml of cold binding buffer. After addition of 45 μl of Microscint 40 (PerkinElmer) the Unifilter-96 plate was sealed and after 1 hr the radioactivity counted using a TopCount Microplate Scintillation Counter (Packard Instrument Company).

The target in assay [2] is rat TAAR1 (Rattus norvegicus (Rat), UniProt Q923Y9). The assay is described as follows: Radioligand binding assay on rat TAAR1. The settings on record: rat TAAR1, membranes of stably transfected HEK-293 cells; second value of the pair; read-out: Ki (μM) mouse/rat: rat. As for the experimental part:
as §1, §2
Radioligand Binding Assay on Rat TAAR1
as §3
as §4, with “1′000” for “1,000”, “48′000×g” for “48,000×g”

Sequence of mouse TAAR1 (Q923Y8 whole entry): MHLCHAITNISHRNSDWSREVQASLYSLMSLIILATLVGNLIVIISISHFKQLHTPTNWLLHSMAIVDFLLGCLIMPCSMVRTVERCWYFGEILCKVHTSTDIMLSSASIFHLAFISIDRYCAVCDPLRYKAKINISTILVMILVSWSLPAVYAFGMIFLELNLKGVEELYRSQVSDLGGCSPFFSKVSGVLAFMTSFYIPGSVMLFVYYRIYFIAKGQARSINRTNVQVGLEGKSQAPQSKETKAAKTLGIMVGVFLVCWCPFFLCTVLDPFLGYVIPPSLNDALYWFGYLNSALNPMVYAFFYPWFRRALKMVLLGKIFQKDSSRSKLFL
Sequence of rat TAAR1 (Q923Y9 whole entry): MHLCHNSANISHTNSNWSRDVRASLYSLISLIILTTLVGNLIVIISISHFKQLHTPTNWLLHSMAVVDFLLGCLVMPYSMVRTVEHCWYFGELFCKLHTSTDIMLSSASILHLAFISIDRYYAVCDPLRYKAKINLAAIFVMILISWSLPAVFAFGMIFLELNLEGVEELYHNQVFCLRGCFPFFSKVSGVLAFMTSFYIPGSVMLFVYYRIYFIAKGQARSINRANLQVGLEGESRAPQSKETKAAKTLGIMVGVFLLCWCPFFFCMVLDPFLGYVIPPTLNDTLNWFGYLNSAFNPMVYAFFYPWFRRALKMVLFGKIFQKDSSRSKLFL

On to `O=C(Nc1ccc(C(F)(F)F)cc1)Nc1ccc(C2CNCCO2)nc1` (racemic) [Example 10, (RS)-1-(6-Morpholin-2-yl-3-pyridyl)-3-[4-(trifluoromethyl)phenyl]urea], for which the Ki in assay [1] was 0.0042 µM; in assay [2] it was 0.0029 µM.
For the compound `CCCc1n[nH]c(C(=O)Nc2ccc([C@H]3CNCCO3)nc2)c1F` [Example 85, 4-Fluoro-N-[6-[(2R)-morpholin-2-yl]-3-pyridyl]-3-propyl-1H-pyrazole-5-carboxamide], the Ki in assay [1] amounted to 0.0046 µM; in assay [2], 0.15 µM.
Consider `CC(C)Cc1n[nH]c(C(=O)Nc2ccc([C@H]3CNCCO3)nc2)c1F` [Example 95, 4-Fluoro-3-isobutyl-N-[6-[(2R)-morpholin-2-yl]-3-pyridyl]-1H-pyrazole-5-carboxamide], for which the Ki was determined as 0.0113 µM in assay [1] and 0.0534 µM in assay [2].
On to `Cc1cn[nH]c1C(=O)Nc1ccc([C@H]2CNCCO2)nc1` [Example 65, 4-Methyl-N-[6-[(2R)-morpholin-2-yl]-3-pyridyl]-1H-pyrazole-5-carboxamide], for which the Ki is 0.344 µM in assay [1] and 4.47 µM in assay [2].
As to `CCOc1ccc(C(=O)Nc2ccc(C3CNCCO3)nc2)cc1` (racemic) [Example 13, (RS)-4-Ethoxy-N-(6-morpholin-2-yl-3-pyridyl)benzamide], the Ki is 0.0124 µM in assay [1] and 0.328 µM in assay [2].
As to `FC(F)(F)c1ccc(Nc2ccc([C@@H]3CNCCO3)nc2)nc1` [Example 29, N-[6-[(2S)-Morpholin-2-yl]-3-pyridyl]-5-(trifluoromethyl)pyridin-2-amine], the Ki in assay [1] is 0.0035 µM; in assay [2], 0.0103 µM.
On the same counts, the results for `CCc1ncc(C(=O)Nc2ccc([C@H]3CNCCO3)nc2)cn1` [Example 57, 2-Ethyl-N-[6-[(2R)-morpholin-2-yl]-3-pyridyl]pyrimidine-5-carboxamide] are 0.673 µM and 2.4 µM.
Turning to `CC(C)c1n[nH]c(C(=O)Nc2ccc([C@H]3CNCCO3)nc2)c1Cl` [Example 115, 4-Chloro-3-isopropyl-N-[6-[(2R)-morpholin-2-yl]-3-pyridyl]-1H-pyrazole-5-carboxamide], the values for the Ki in assay [1] and in assay [2] were 0.0087 µM and 0.009 µM, respectively.
On the same counts, the results for `Fc1ccc(Nc2ccc(C3CNCCO3)nc2)cc1` (racemic) [Example 5, (RS)—N-(4-Fluorophenyl)-6-morpholin-2-yl-pyridin-3-amine] are 0.0065 µM and 0.372 µM.
`Clc1ccc(Nc2ccc(C3CNCCO3)nc2)cc1` (racemic) [Example 1, (RS)—N-(4-Chlorophenyl)-6-morpholin-2-yl-pyridin-3-amine]: the values for the Ki in assay [1] and in assay [2] were 0.0017 µM and 0.071 µM, respectively.
On the same counts, the results for `Brc1ccc(Nc2ccc([C@@H]3CNCCO3)nc2)nc1` [Example 21, N-(5-Bromo-2-pyridyl)-6-[(2S)-morpholin-2-yl]pyridin-3-amine] are 0.002 µM and 0.0324 µM.
On the same counts, the results for `O=C(Nc1cnc(C2CNCCO2)c(F)c1)c1ccnc(C(F)(F)F)c1` (racemic) [Example 113, (RS)—N-(5-Fluoro-6-morpholin-2-yl-3-pyridyl)-2-(trifluoromethyl)pyridine-4-carboxamide] are 0.0557 µM and 1.31 µM.
For the compound `Cc1n[nH]c(C(=O)Nc2ccc([C@@H]3CNCCO3)nc2)c1Cl` [Example 44, 4-Chloro-3-methyl-N-[6-[(2S)-morpholin-2-yl]-3-pyridyl]-1H-pyrazole-5-carboxamide], the Ki in assay [1] was 0.0239 µM; in assay [2], 0.443 µM.
Consider `Cc1cc(NC(=O)Nc2cccc(Cl)c2)cnc1C1CNCCO1` (racemic) [Example 119, (RS)-1-(3-Chlorophenyl)-3-(5-methyl-6-morpholin-2-yl-3-pyridyl)urea], for which the Ki in assay [1] was 0.0533 µM; in assay [2], 0.243 µM.
`CCc1n[nH]c(C(=O)Nc2ccc([C@H]3CNCCO3)nc2)c1Br` [Example 84, 4-Bromo-3-ethyl-N-[6-[(2R)-morpholin-2-yl]-3-pyridyl]-1H-pyrazole-5-carboxamide]: the figures for the Ki in assay [1] and in assay [2] were 0.0063 µM and 0.0685 µM, respectively.
In the case of `CCc1n[nH]c(C(=O)Nc2ccc([C@@H]3CNCCO3)nc2)c1F` [Example 77, 3-Ethyl-4-fluoro-N-[6-[(2S)-morpholin-2-yl]-3-pyridyl]-1H-pyrazole-5-carboxamide], the Ki amounted to 0.0121 µM in assay [1] and 0.302 µM in assay [2].
As to `FC(F)(F)c1cccc(Nc2ccc([C@@H]3CNCCO3)nc2)n1` [Example 30, N-[6-[(2S)-Morpholin-2-yl]-3-pyridyl]-6-(trifluoromethyl)pyridin-2-amine], the Ki in assay [1] amounted to 0.0034 µM; in assay [2] it was 0.0208 µM.
For the compound `O=C(Nc1ccc(C2CNCCO2)nc1)c1ccc(Cl)cc1` (racemic) [Example 7, (RS)-4-Chloro-N-(6-morpholin-2-yl-3-pyridyl)benzamide], the Ki in assay [1] was 0.0038 µM; in assay [2], 0.0745 µM.
Consider `O=C(Nc1ccc([C@H]2CNCCO2)nc1)c1[nH]nc(C2CC2)c1Cl` [Example 60, 4-Chloro-3-cyclopropyl-N-[6-[(2R)-morpholin-2-yl]-3-pyridyl]-1H-pyrazole-5-carboxamide], for which the Ki was 0.0096 µM in assay [1] and 0.0448 µM in assay [2].
For the compound `O=C(Nc1ccc([C@H]2CNCCO2)nc1)c1[nH]nc(C2CC2)c1Br` [Example 87, 4-Bromo-3-cyclopropyl-N-[6-[(2R)-morpholin-2-yl]-3-pyridyl]-1H-pyrazole-5-carboxamide], the results for the Ki in assay [1] and in assay [2] were 0.0053 µM and 0.0291 µM, respectively.
Consider `O=C(Nc1ccc(C2CNCCO2)nc1)c1ccc(F)cc1` (racemic) [Example 14, (RS)-4-Fluoro-N-(6-morpholin-2-yl-3-pyridyl)benzamide], for which the results for the Ki in assay [1] and in assay [2] were 0.0084 µM and 0.917 µM, respectively.
On the same counts, the results for `Brc1ccc(Nc2ccc(C3CNCCO3)nc2)cc1` (racemic) [Example 2, (RS)—N-(4-Bromophenyl)-6-morpholin-2-yl-pyridin-3-amine] are 0.0018 µM and 0.0437 µM.
On the same counts, the results for `Clc1ccc(Nc2ccc([C@H]3CNCCO3)nc2)nc1` [Example 26, N-(5-Chloro-2-pyridyl)-6-[(2R)-morpholin-2-yl]pyridin-3-amine] are 0.0118 µM and 0.424 µM.
`O=C(Nc1ccc([C@H]2CNCCO2)nc1)c1ccc(OCC(F)(F)F)nc1` [Example 56, N-[6-[(2R)-Morpholin-2-yl]-3-pyridyl]-6-(2,2,2-trifluoroethoxy)pyridine-3-carboxamide]: the Ki in assay [1] is 0.0075 µM; in assay [2] it was 0.0334 µM.
Consider `O=C(Nc1ccc([C@H]2CNCCO2)nc1)c1[nH]nc(C2CC2)c1F` [Example 86, 3-Cyclopropyl-4-fluoro-N-[6-[(2R)-morpholin-2-yl]-3-pyridyl]-1H-pyrazole-5-carboxamide], for which the Ki in assay [1] was 0.0074 µM; in assay [2], 0.156 µM.
